Source: patent publication US20070117743A1, “New antitumoral compounds” (priority 2003, published 2007)

How the values were obtained:
Type in all cases: cell-based, human
A-549 = assay: SRB colorimetric assay of cell growth and viability, A-549; details: 48 hours exposure; for GI50: read-out: GI50 A-549; for CC50: read-out: LC50 A-549
Excerpt: (§1) The finality of this assay is to interrupt the growth of a “in vitro” tumor cell culture by means a continued exhibition of the cells to the sample to be testing.
(§2) This form of the assay employs 96 well cell culture microplates of 9 mm diameter (Faircloth, 1988; Mosmann, 1983). Most of the cell lines are obtained from American Type Culture Collection (ATCC) derived from different human cancer types.
(§3) Cells are maintained in RPMI 1640 10% FBS, supplemented with 0.1 g/l penicillin and 0.1 g/l streptomycin sulfate and then incubated at 37° C., 5% CO2 and 98% humidity. For the experiments, cells were harvested from subconfluent cultures using trypsin and resuspended in fresh medium before plating.
(§4) Cells are seeded in 96 well microtiter plates, at 5×10^3 cells per well in aliquots of 195 μL medium, and they are allowed to attach to the plate surface by growing in drug free medium for 18 hours. Afterward, samples are added in aliquots of 5 μL in a ranging from 10 to 10^−8 μg/mL, dissolved in DMSO:EtOH:PBS (0.5:0.5:99). After 48 hours exposure, the antitumor effect are measured by the SRB methodology: cells are fixed by adding 50 μL of cold 50% (wt/vol) trichloroacetic acid (TCA) and incubating for 60 minutes at 4° C. Plates are washed with deionized water and dried. One hundred μL of SRB solution (0.4% wt/vol in 1% acetic acid) is added to each microtiter well and incubated for 10 minutes at room temperature. Unbound SRB is removed by washing with 1% acetic acid. Plates are air dried and bound stain is solubilized with Tris buffer. Optical densities are read on a automated spectrophotometric plate reader at a single wavelength of 490 nm.
(§5) The values for mean+/− SD of data from triplicate wells are calculated. Some parameters for cellular responses can be calculated: GI=growth inhibition, TGI=total growth inhibition (cytostatic effect) and LC=cell killing (cytotoxic effect).

SK-MEL-28 = assay: SRB colorimetric assay of cell growth and viability, SK-MEL-28; details: 48 hours exposure; for CC50: read-out: LC50 MEL-28
Excerpt: as §1, §2, §3, §4, §5

HT-29 = assay: SRB colorimetric assay of cell growth and viability, HT-29; details: 48 hours exposure; for GI50: read-out: GI50 HT-29; for CC50: read-out: LC50 HT-29
Excerpt: as §1, §2, §3, §4, §5

LoVo = assay: SRB colorimetric assay of cell growth and viability, LoVo; details: 48 hours exposure; for CC50: read-out: LC50 LOVO
Excerpt: as §1, §2, §3, §4, §5

LoVo-Dox = assay: SRB colorimetric assay of cell growth and viability, LoVo-Dox; details: 48 hours exposure; for CC50: read-out: LC50 LOVO-DOX
Excerpt: as §1
A colorimetric type of assay, using sulforhodamine B (SRB) reaction has been adapted for a quantitative measurement of cell growth and viability [following the technique described by Philip Skehan, et al. (1990), New colorimetric cytotoxicity assay for anticancer drug screening, J. Natl. Cancer Inst., 82:1107-1112].
as §2, §3, §4, §5

DU-145 = assay: SRB colorimetric assay of cell growth and viability, DU-145; details: 48 hours exposure
Excerpt: as §1, §2, §3, §4, §5

IGROV-1 = assay: SRB colorimetric assay of cell growth and viability, IGROV-1; details: 48 hours exposure
Excerpt: as §1, §2, §3, §4, §5

IGROV-ET = assay: SRB colorimetric assay of cell growth and viability, IGROV-ET; details: 48 hours exposure; for CC50: read-out: LC50 IGROV-ET
Excerpt: as §1, §2, §3, §4, §5

HeLa = assay: SRB colorimetric assay of cell growth and viability, HeLa; details: 48 hours exposure; for CC50: read-out: LC50 HELA
Excerpt: as §1, §2, §3, §4, §5

HeLa-APL = assay: SRB colorimetric assay of cell growth and viability, HeLa-APL; details: 48 hours exposure; for CC50: read-out: LC50 HELA-APL
Excerpt: as §1, §2, §3, §4, §5

K-562 = assay: SRB colorimetric assay of cell growth and viability, K-562; details: 48 hours exposure; for CC50: read-out: LC50 K-562
Excerpt: as §1, §2, §3, §4, §5

PANC-1 = assay: SRB colorimetric assay of cell growth and viability, PANC-1; details: 48 hours exposure; for CC50: read-out: LC50 PANC-1
Excerpt: as §1, §2, §3, §4, §5

Compound | TGI A-549 (A-549) | GI50 (A-549) | CC50 (A-549) | GI50 (SK-MEL-28) | TGI MEL-28 (SK-MEL-28) | CC50 (SK-MEL-28) | TGI HT-29 (HT-29) | GI50 (HT-29) | CC50 (HT-29) | GI50 (LoVo) | TGI LOVO (LoVo) | CC50 (LoVo) | GI50 (LoVo-Dox) | TGI LOVO-DOX (LoVo-Dox) | CC50 (LoVo-Dox) | GI50 (DU-145) | LC50 (concentration causing 50% net cell kill) (DU-145) | TGI DU-145 (DU-145) | GI50 (IGROV-1) | LC50 (concentration causing 50% net cell killing) (IGROV-1) | also measured
C/C=C1\NC(=O)[C@H](Cc2ccccc2)NC(=O)[C@@H](C(C)C)NC(=O)[C@@H]([C@@H](C)CC)NC(=O)[C@H](NC(=O)[C@H](NC(=O)[C@H](CCCN)NC(=O)[C@H]2CCCN2C(=O)[C@H](NC(=O)[C@@H](NC(=O)[C@@H](NC(=O)[C@@H](CC(C)C)NC(=O)CCCC(C)C)[C@@H](C)O)C(C)C)C(C)C)[C@@H](C)CC)[C@@H](C)OC(=O)[C@H](C(C)C)NC1=O [Compound 35, [D-Leu^13]-KF] | 9.58E−07 Molar | 124 nM | 2650 nM | 1170 nM | 2.10E−06 Molar | 3790 nM | 1.62E−06 Molar | 771 nM | 3.39 µM | 200 nM | 8.04E−07 Molar | 2280 nM | 158 nM | 3.46E−07 Molar | 871 nM | 905 nM | 3.53 µM | 1.79E−06 Molar | 717 nM | 3240 nM | TGI IGROV (IGROV-1): 1.53E−06 Molar; GI50 (IGROV-ET): 684 nM; TGI IGROV-ET (IGROV-ET): 1.49E−06 Molar; CC50 (IGROV-ET): 3.26 µM; GI50 (HeLa): 878 nM; TGI HELA (HeLa): 1.74E−07 Molar; CC50 (HeLa): 3430 nM; GI50 (HeLa-APL): 13.3 nM; TGI HELA-APL (HeLa-APL): 1.31E−06 Molar; CC50 (HeLa-APL): 6.7 µM; GI50 (K-562): 1230 nM; TGI K-562 (K-562): 2.30E−06 Molar; CC50 (K-562): 4.28 µM; GI50 (PANC-1): 751 nM; TGI PANC-1 (PANC-1): 1.87E−06 Molar; CC50 (PANC-1): 4670 nM
C/C=C1\NC(=O)[C@H](Cc2ccccc2)NC(=O)[C@@H](C(C)C)NC(=O)[C@@H]([C@@H](C)CC)NC(=O)[C@H](NC(=O)[C@H](NC(=O)[C@H](CCCN)NC(=O)[C@H]2CCCN2C(=O)[C@H](NC(=O)[C@@H](NC(=O)[C@@H](NC(=O)[C@@H](Cc2ccccc2)NC(=O)CCCC(C)C)[C@@H](C)O)C(C)C)C(C)C)[C@@H](C)CC)[C@@H](C)OC(=O)[C@H](C(C)C)NC1=O [Compound 36, [D-Phe^13]-KF] | 5.14E−08 Molar | 4.81 nM | 990 nM | 154 nM | 7.21E−07 Molar | 2200 nM | 1.21E−06 Molar | 398 nM | 2.84 µM | 136 nM | 9.63E−07 Molar | 2440 nM | 300 nM | 9.63E−07 Molar | 2150 nM | 266 nM | 2.49 µM | 6.75E−07 Molar | 144 nM | 2500 nM | TGI IGROV (IGROV-1): 9.90E−07 Molar; GI50 (IGROV-ET): 852 nM; TGI IGROV-ET (IGROV-ET): 1.74E−06 Molar; CC50 (IGROV-ET): 3.55 µM; GI50 (HeLa): 7.86 nM; TGI HELA (HeLa): 9.50E−08 Molar; CC50 (HeLa): 701 nM; GI50 (HeLa-APL): 81.9 nM; TGI HELA-APL (HeLa-APL): 6.55E−06 Molar; CC50 (HeLa-APL): 6.55 µM; GI50 (K-562): 420 nM; TGI K-562 (K-562): 1.25E−06 Molar; CC50 (K-562): 2.9 µM; GI50 (PANC-1): 6.62 nM; TGI PANC-1 (PANC-1): 2.73E−08 Molar; CC50 (PANC-1): 976 nM
C/C=C1\NC(=O)[C@H](Cc2ccccc2)NC(=O)[C@@H](C(C)C)NC(=O)[C@@H]([C@@H](C)CC)NC(=O)[C@H](NC(=O)[C@H](NC(=O)[C@H](CCCN)NC(=O)[C@H]2CCCN2C(=O)[C@H](NC(=O)[C@@H](NC(=O)[C@@H](NC(=O)[C@H]2CCCN2C(=O)CCCC(C)C)[C@@H](C)O)C(C)C)C(C)C)[C@@H](C)CC)[C@@H](C)OC(=O)[C@H](C(C)C)NC1=O [Compound 37, [D-Pro^13]-KF] | 3.90E−08 Molar | 17.4 nM | 813 nM | 76.6 nM | 2.76E−07 Molar | 1300 nM | 6.78E−06 Molar | 391 nM | 6.78 µM | 114 nM | 1.02E−06 Molar | 2970 nM | 1780 nM | 4.30E−06 Molar | 6780 nM | 228 nM | 1.96 µM | 5.81E−07 Molar | 165 nM | 2550 nM | TGI IGROV (IGROV-1): 8.27E−07 Molar; GI50 (IGROV-ET): 1210 nM; TGI IGROV-ET (IGROV-ET): 2.24E−06 Molar; CC50 (IGROV-ET): 4.15 µM; GI50 (HeLa): 12.9 nM; TGI HELA (HeLa): 2.83E−08 Molar; CC50 (HeLa): 62 nM; GI50 (HeLa-APL): 888 nM; TGI HELA-APL (HeLa-APL): 2.01E−06 Molar; CC50 (HeLa-APL): 4.55 µM; GI50 (K-562): 684 nM; TGI K-562 (K-562): 1.48E−06 Molar; CC50 (K-562): 3.2 µM; GI50 (PANC-1): 15.4 nM; TGI PANC-1 (PANC-1): 3.12E−08 Molar; CC50 (PANC-1): 62.8 nM
C/C=C1\NC(=O)[C@H](Cc2ccccc2)NC(=O)[C@@H](C(C)C)NC(=O)[C@@H]([C@@H](C)CC)NC(=O)[C@H](NC(=O)[C@H](NC(=O)[C@H](CCCN)NC(=O)[C@H]2CCCN2C(=O)[C@H](NC(=O)[C@@H](NC(=O)[C@@H](NC(=O)[C@@H](NC(=O)CCCC(C)C)C(C)C)[C@@H](C)O)C(C)C)C(C)C)[C@@H](C)CC)[C@@H](C)OC(=O)[C@H](C(C)C)NC1=O [Compound 38, [Val^13]-KF] | 9.88E−07 Molar | 307 nM | 2440 nM | 805 nM | 1.68E−06 Molar | 3550 nM | 2.12E−06 Molar | 1160 nM | 3.88 µM | 1290 nM | 2.40E−06 Molar | 4470 nM | 1120 nM | 1.94E−06 Molar | 3360 nM | 1660 nM | 4.22 µM | 2.65E−06 Molar | 1010 nM | 3530 nM | TGI IGROV (IGROV-1): 1.89E−06 Molar; GI50 (IGROV-ET): 1970 nM; TGI IGROV-ET (IGROV-ET): 2.97E−06 Molar; CC50 (IGROV-ET): 4.49 µM; GI50 (HeLa): 46 nM; TGI HELA (HeLa): 1.55E−07 Molar; CC50 (HeLa): 583 nM; GI50 (HeLa-APL): 1850 nM; TGI HELA-APL (HeLa-APL): 2.88E−06 Molar; CC50 (HeLa-APL): 4.49 µM; GI50 (K-562): 1280 nM; TGI K-562 (K-562): 2.28E−06 Molar; CC50 (K-562): 4.05 µM; GI50 (PANC-1): 25.4 nM; TGI PANC-1 (PANC-1): 1.20E−07 Molar; CC50 (PANC-1): 988 nM
